We go through 29 sequences from the supplement of paper PMC11208160.
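Note: IS621 bridge recombinase in Escherichia coli cells against a fixed T5 target plasmid.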

A short description of this data set: recombinant UMI read abundance after kanamycin selection (control-corrected) (log10(CPM+1)); higher = more efficient recombination; extreme values may be limits of the assay; sequences stand for … in AGTGCAGAGAAAATCGGCCAGTTTTCTCTGCCTGCAGTCCGCATGCCGTGGGACCCCTTGGGTTCTAACCTGTTGCCTAGATTTATGCAGCGGACTGCCTTTCTCCCAAAGTGATAAACCGG…AGGTTGGTTTCACT; site = the 11-nt donor. A digest of the protocol:
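Each donor and donor-binding-loop pair was tracked by a 12-nt UMI on a plasmid carrying a promoterless kanamycin gene. With a second plasmid supplying a fixed target and T7-inducible IS621 bridge recombinase, the pool was plated in Escherichia coli on IPTG (0.07 mM) plus kanamycin or unselected. Sequencing of recombinant UMIs across the donor–target junction gave counts expressed as log10(CPM+1) after replicate averaging and control-derived scaling.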
As for “TTTGCGGCATGGACCGGTTTTCCCGGTAATCCGTATTTGAT (site TTTGCGGCTAA)”, the “recombinant UMI read abundance (log10)” value was found to be 0.015.

Consider “TTTGCGGCATGGACCGGTTTTCCCGGTAATCCGTATTTGAT (site TTTGCGGCTAC)”, for which the “recombinant UMI read abundance (log10)” value was found to be 0.00828. Under “TTTGCGGCATGGACCGGTTTTCCCGGTAATCCGTATTTGAT (site TTTGCGGCTAG)” stands 0; under “TTTGCGGCATGGACCGGTTTTCCCGGTAATCCGTATTTGAT (site TTTGCGGCTAT)”, 0.414. The value for “TTTGCGGCATGGACCGGTTTTCCCGGTAATCCGTATTTGCT (site ATTGCGGCTAG)” was 0.00696.

On to “TTTGCGGCATGGACCGGTTTTCCCGGTAATCCGTATTTGCT (site CTTGCGGCTAG)”, for which the “recombinant UMI read abundance (log10)” value is 0.00458.

As for “TTTGCGGCATGGACCGGTTTTCCCGGTAATCCGTATTTGCT (site GTTGCGGCTAG)”, the “recombinant UMI read abundance (log10)” value is 0.00615. The value for “TTTGCGGCATGGACCGGTTTTCCCGGTAATCCGTATTTGCT (site TATGCGGCTAG)” was 0.00481; that for “TTTGCGGCATGGACCGGTTTTCCCGGTAATCCGTATTTGCT (site TCTGCGGCTAG)” was 0. Under “TTTGCGGCATGGACCGGTTTTCCCGGTAATCCGTATTTGCT (site TGTGCGGCTAG)” stands 0.0128; under “TTTGCGGCATGGACCGGTTTTCCCGGTAATCCGTATTTGCT (site TTAGCGGCTAG)”, 0.486. The value for “TTTGCGGCATGGACCGGTTTTCCCGGTAATCCGTATTTGCT (site TTCGCGGCTAG)” was 0. For “TTTGCGGCATGGACCGGTTTTCCCGGTAATCCGTATTTGCT (site TTGGCGGCTAG)”, the “recombinant UMI read abundance (log10)” value came out at 0.0258.

Turning to “TTTGCGGCATGGACCGGTTTTCCCGGTAATCCGTATTTGCT (site TTTACGGCTAG)”, the “recombinant UMI read abundance (log10)” value is 0.658. Under “TTTGCGGCATGGACCGGTTTTCCCGGTAATCCGTATTTGCT (site TTTCCGGCTAG)” stands 0.0114. Consider “TTTGCGGCATGGACCGGTTTTCCCGGTAATCCGTATTTGCT (site TTTGAGGCTAG)”, for which the “recombinant UMI read abundance (log10)” value is 0.00621. With “TTTGCGGCATGGACCGGTTTTCCCGGTAATCCGTATTTGCT (site TTTGCAGCTAG)”, the “recombinant UMI read abundance (log10)” value came to 0.0183. The value for “TTTGCGGCATGGACCGGTTTTCCCGGTAATCCGTATTTGCT (site TTTGCCGCTAG)” was 0.00324; that for “TTTGCGGCATGGACCGGTTTTCCCGGTAATCCGTATTTGCT (site TTTGCGACTAG)” was 0; that for “TTTGCGGCATGGACCGGTTTTCCCGGTAATCCGTATTTGCT (site TTTGCGCCTAG)” was 0.00251. “TTTGCGGCATGGACCGGTTTTCCCGGTAATCCGTATTTGCT (site TTTGCGGCTAA)”: the “recombinant UMI read abundance (log10)” value is 0.0285. As to “TTTGCGGCATGGACCGGTTTTCCCGGTAATCCGTATTTGCT (site TTTGCGGCTAC)”, the “recombinant UMI read abundance (log10)” value stood at 0.0071. With “TTTGCGGCATGGACCGGTTTTCCCGGTAATCCGTATTTGCT (site TTTGCGGCTAG)”, the “recombinant UMI read abundance (log10)” value is 0.75. The value for “TTTGCGGCATGGACCGGTTTTCCCGGTAATCCGTATTTGCT (site TTTGCGGCTAT)” was 0.0119. As to “TTTGCGGCATGGACCGGTTTTCCCGGTAATCCGTATTTGCT (site TTTGCGGCTCG)”, the “recombinant UMI read abundance (log10)” value stood at 0.0133. Turning to “TTTGCGGCATGGACCGGTTTTCCCGGTAATCCGTATTTGCT (site TTTGCGGCTGG)”, the “recombinant UMI read abundance (log10)” value came to 0. “TTTGCGGCATGGACCGGTTTTCCCGGTAATCCGTATTTGCT (site TTTGCGGCTTG)”: the “recombinant UMI read abundance (log10)” value came to 0.00988. Take “TTTGCGGCATGGACCGGTTTTCCCGGTAATCCGTATTTGCT (site TTTGCGTCTAG)”: the “recombinant UMI read abundance (log10)” value worked out at 0.00651. The value for “TTTGCGGCATGGACCGGTTTTCCCGGTAATCCGTATTTGCT (site TTTGCTGCTAG)” was 0.
